15 molecules from PubChem BioAssay (NCI) can be followed below.

Experiment in all cases: DTP human tumour cell line panel, 48 h
Assay [1] concerns UACC-257 melanoma.
In assay [2] the test system is SK-MEL-5 melanoma.
Assay [3] has as its system SF-295 CNS.
For assay [4], the system named is OVCAR-3 ovarian.
The test system of assay [5] is RPMI-8226 leukemia.
The subject of assay [6] is SR leukemia.
Assay [7] has as its system UACC-62 melanoma.
Assay [8] has as its system RXF 393 renal.
The test system of assay [9] is HOP-62 NSCLC.
For assay [10], the system named is ACHN renal.
Assay [11] deals with EKVX NSCLC.
Assay [12] has as its system SF-268 CNS.
The test system of assay [13] is SNB-19 CNS.
Assay [14] has as its system MDA-MB-231 breast.
The subject of assay [15] is SW-620 colon.
In assay [16] the test system is HCT-15 colon.
Assay [17] deals with HOP-92 NSCLC.
Assay [18] deals with 786-0 renal.
The test system of assay [19] is NCI-H226 lung.

What is called TGI is the concentration at which net growth stops. Read a low TGI as greater sensitivity of the cells.

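48-hour exposure; five concentrations; linearly interpolated endpoints. The concentration for full growth arrest is given as TGI.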 Where a SMILES comes first, the peptide text is derived from it. [ ]: non-standard residue; d: D form. The star is where a group is joined. Phe(4-NO2) = N[CH](Cc1ccc([N+](=O)[O-])cc1)C(=O)O; Boc = CC(C)(C)OC(=O)*

For `COc1ccc(/C=C2\CCc3cc(OC)c(OC)cc3C2=O)cc1`, the TGI in [1], in assay [2], in assay [3], in assay [4], in assay [5] and in assay [6] was above 10 µM each time. Also, the TGI in assay [7], in assay [8], in assay [9], in assay [10], in assay [11] and in assay [12] was above 10 µM each time. For the same molecule, the TGI in assay [13], in [14], in assay [15], in [16], in assay [17] and in [18] was above 10 µM throughout. Moreover, the TGI in assay [19] is above 10 µM.

For `O=c1oc2c/c(=C\c3ccccn3)c(=O)c3cccc1c3-2`, the TGI was above 100 µM in [1]; above 100 µM in [2]; above 100 µM in assay [3]; 39.4 µM in [4]; above 100 µM in assay [5]; above 100 µM in [6]. Further, the TGI in assay [7] was above 100 µM; in assay [8], 37.7 µM; in [9], 39.2 µM; in assay [10] it was above 100 µM; in assay [11], above 100 µM; in assay [12] it was above 100 µM. The TGI in assay [13], in [14], in [15], in [16], in [17] and in [18] was above 100 µM throughout. This molecule showed a TGI in [19] above 100 µM.

Consider `COc1ccc(C(=C2C(=O)N(c3ccccc3)C(=O)C2=C(C)C)c2ccc(OC)cc2)cc1`, for which the total growth inhibition concentration (TGI) was above 47.5 µM in assay [1]; above 51.4 µM in assay [2]; above 49 µM in assay [3]; above 100 µM in assay [4]; above 43.7 µM in [5]; above 100 µM in assay [6]. Moreover, the TGI is above 34.2 µM in assay [7]; 5.9 µM in [8]; above 66.2 µM in assay [9]; above 31.7 µM in [10]; above 24.4 µM in assay [11]; above 34.3 µM in assay [12]. Besides, the TGI in [13] was above 56.2 µM; in assay [14], above 35.4 µM; in assay [15] it was above 100 µM; in assay [16], above 32.5 µM; in [17], above 31.6 µM; in assay [18], 23.7 µM. In addition, the concentration for total growth inhibition (TGI) in assay [19] is above 54 µM.

As for `CCOC(=O)C(NC(=O)c1cccc(Cl)c1)(N1CCN(c2cc3c(cc2F)c(=O)c(C(=O)O)cn3C2CC2)CC1)C(F)(F)F` (stereo not drawn), the TGI in assay [2] is 25.5 µM; in assay [3] it was 53.5 µM; in [4], 29.5 µM; in assay [5], 23.6 µM; in [6], 25.8 µM; in assay [7] it was 42.2 µM. Further, the total growth inhibition concentration (TGI) in assay [8] amounted to 34.4 µM; in [9], 50 µM; in assay [10], 31 µM; in assay [11], 55.2 µM; in [12], 29.1 µM; in [13], 84.9 µM. Also, the TGI in [14] worked out at 34.2 µM; in assay [15], 27.2 µM; in [17], 34.6 µM; in assay [18], 28.3 µM; in assay [19], 40.3 µM.

Consider `O=C1CSC(c2ccccc2O)N1c1nc2cc3sc(N4C(=O)CSC4c4ccccc4O)nc3cc2s1` (stereo not drawn), for which the TGI is above 77.5 µM in assay [1]; above 100 µM in [2]; above 100 µM in assay [3]; above 100 µM in assay [4]; above 100 µM in assay [5]; above 100 µM in [6]. For the same molecule, the total growth inhibition concentration (TGI) in [7], in assay [8], in assay [9], in [10], in assay [11] and in assay [12] was above 100 µM throughout. Besides, the TGI in assay [13], in assay [14], in [15], in [16], in assay [17] and in [18] was above 100 µM throughout. In [19], this molecule returned a TGI above 88.1 µM.

Turning to `CC(C)(C)OC(=O)NC(CS(=O)(=O)O)C(=O)O` (stereo not drawn), the concentration for total growth inhibition (TGI) in assay [1], in [2], in assay [3], in assay [4], in assay [5] and in assay [6] was above 100 µM each time. Besides, the TGI in [7], in assay [8], in [9], in assay [10], in assay [11] and in assay [12] was above 100 µM throughout. The concentration for total growth inhibition (TGI) in assay [13], in [14], in assay [15], in [16], in assay [17] and in [18] was above 100 µM in each case. In assay [19], this molecule showed a TGI above 100 µM.

As for `CC1OC(OCC2OC(Oc3ccc(C4CC(=O)c5c(O)cc(O)cc5O4)cc3O)C(O)C(O)C2O)C(O)C(O)C1O` (stereo not drawn), the TGI in [1], in [2], in assay [3], in assay [4], in assay [5] and in assay [6] was above 100 µM each time. The TGI in assay [7], in assay [8], in assay [9], in assay [10], in assay [11] and in assay [12] was above 100 µM in each case. Moreover, the concentration for total growth inhibition (TGI) in assay [13], in assay [14], in [15], in [16], in assay [17] and in assay [18] was above 100 µM throughout. In assay [19], this molecule displayed a TGI above 100 µM.

`COC(=O)CCC(NC(=O)OC(C)(C)C)C(=O)NC(Cc1ccc([N+](=O)[O-])cc1)C(=O)NC(CCC(=O)OC)C(=O)OC` (stereo not drawn) (Boc-Glu(OMe)-[Phe(4-NO2)]-Glu(OMe)-OMe; configuration not given here): the concentration for total growth inhibition (TGI) was 25.3 µM in assay [1]; above 100 µM in assay [2]; above 100 µM in assay [3]; above 100 µM in assay [4]; 67.3 µM in [5]; 51.6 µM in assay [6]. Moreover, the TGI in [7], in [8], in [9], in assay [10], in assay [11] and in assay [12] was above 100 µM each time. For the same molecule, the TGI in assay [13], in [14], in assay [15], in assay [16], in assay [17] and in [18] was above 100 µM each time. This molecule also returned a TGI in assay [19] above 100 µM.

`COc1ccc(/C=C2\N=C(c3ccccc3)OC2=O)cc1OC(C)=O`: the concentration for total growth inhibition (TGI) in assay [1] was above 100 µM; in assay [2], above 100 µM; in assay [4] it was above 100 µM; in assay [5], above 100 µM; in [6], 45 µM; in assay [7], above 100 µM. For the same molecule, the TGI in [8], in assay [9], in assay [10], in [12], in assay [13] and in assay [14] was above 100 µM throughout. The TGI in assay [15], in assay [16], in [17], in assay [18] and in assay [19] was above 100 µM each time.

In the case of `CNN1C(=O)c2c(C)c(C)c(C#N)c(N)c2C1=O`, the total growth inhibition concentration (TGI) in assay [1], in assay [2], in assay [3], in assay [4], in [5] and in [6] was above 100 µM throughout. The total growth inhibition concentration (TGI) in assay [7], in assay [8], in [10], in assay [11], in assay [12] and in assay [13] was above 100 µM throughout. Besides, the TGI in assay [14], in assay [15], in [16], in [17], in assay [18] and in [19] was above 100 µM each time.

In the case of `Nc1nnc2oc3ccc4ccccc4c3cc1-2`, the TGI in assay [1] is above 100 µM; in [2], above 100 µM; in [3] it was above 100 µM; in [4], above 100 µM; in [5], above 100 µM; in assay [6], 72.7 µM. Moreover, the TGI in assay [7] was above 100 µM; in assay [8] it was above 100 µM; in assay [9], above 100 µM; in assay [10], 80.1 µM; in [11], above 100 µM; in assay [12], above 100 µM. Moreover, the TGI in assay [13] was above 100 µM; in [14], 97.1 µM; in [15], above 100 µM; in [16], above 100 µM; in assay [17], above 100 µM; in [18], above 100 µM. The total growth inhibition concentration (TGI) in assay [19] came to 80.7 µM.

Regarding `Cc1ccc(S(=O)(=O)N/N=C2\CC(C)OC3=C2CCCCCC3)cc1` (stereo not drawn), the TGI in assay [1] turned out to be 36.6 µM; in assay [2], 31.9 µM; in assay [3] it was 35.9 µM; in assay [4], 36 µM; in assay [5], 82.5 µM; in [6], 60.4 µM. Besides, the TGI stood at 30.6 µM in assay [7]; 32.4 µM in assay [8]; 35.1 µM in assay [9]; 32.8 µM in assay [10]; 30.4 µM in assay [11]; 38.4 µM in [12]. The TGI in [13] was 44.1 µM; in [14], 39.4 µM; in [15] it was 36.4 µM; in assay [17], 36.7 µM; in [18], 32.3 µM; in assay [19], 39 µM.

Take `O=C(O)c1nc2ccccc2nc1NCc1ccc(F)cc1`: the TGI in assay [1], in [2], in [3], in assay [4], in assay [5] and in assay [6] was above 100 µM each time. For the same molecule, the TGI in [7], in assay [8], in assay [9], in assay [11], in [12] and in assay [13] was above 100 µM throughout. Besides, the TGI was above 100 µM in [14]; above 100 µM in [15]; 42.8 µM in [16]; above 100 µM in [17]; above 100 µM in assay [18]; above 100 µM in assay [19].

Regarding `CC(NC(=O)OC(C)(C)C)C(=O)NC(Cc1ccccc1)C(=O)NCC(=O)Oc1c(Cl)c(Cl)c(Cl)c(Cl)c1Cl` (stereo not drawn), the concentration for total growth inhibition (TGI) in [1] was found to be 54.5 µM; in [2] it was 27.4 µM; in assay [5], 54.9 µM; in assay [6] it was 64.7 µM; in [7], 50.4 µM; in [8], 35.4 µM. For the same molecule, the total growth inhibition concentration (TGI) in assay [9] is 37.4 µM; in assay [10], 67.6 µM; in assay [11] it was 48.7 µM; in assay [13], above 100 µM; in assay [14] it was 36 µM; in [15], 47 µM. The total growth inhibition concentration (TGI) in [17] was 38.3 µM; in [18], 46.4 µM; in assay [19], 43.5 µM.

On to `Cc1c/c(=N/NC(=O)c2ccncc2)n2nc(N)sc2n1`, for which the TGI in [1], in assay [2], in assay [3], in [4], in [5] and in assay [6] was above 100 µM each time. Besides, the TGI in [7], in assay [8], in assay [9], in assay [10], in assay [11] and in assay [13] was above 100 µM throughout. The TGI in [14], in [15], in [16], in assay [17], in assay [18] and in assay [19] was above 100 µM in each case.
